Assay results published in ChEMBL document CHEMBL1949605, “Discovery of aminoheterocycles as potent and brain penetrant prolylcarboxypeptidase inhibitors” (Bioorg Med Chem Lett, 2012).

Key:
[1] = target: T1, Lysosomal Pro-X carboxypeptidase (Mus musculus, UniProt Q7TMR0); experiment: Inhibition of mouse recombinant PrCP using Mca-Ala-Pro-Lys(Dnp)-OH as substrate after 30 mins by fluorescence analysis
T1 sequence (Q7TMR0 whole entry): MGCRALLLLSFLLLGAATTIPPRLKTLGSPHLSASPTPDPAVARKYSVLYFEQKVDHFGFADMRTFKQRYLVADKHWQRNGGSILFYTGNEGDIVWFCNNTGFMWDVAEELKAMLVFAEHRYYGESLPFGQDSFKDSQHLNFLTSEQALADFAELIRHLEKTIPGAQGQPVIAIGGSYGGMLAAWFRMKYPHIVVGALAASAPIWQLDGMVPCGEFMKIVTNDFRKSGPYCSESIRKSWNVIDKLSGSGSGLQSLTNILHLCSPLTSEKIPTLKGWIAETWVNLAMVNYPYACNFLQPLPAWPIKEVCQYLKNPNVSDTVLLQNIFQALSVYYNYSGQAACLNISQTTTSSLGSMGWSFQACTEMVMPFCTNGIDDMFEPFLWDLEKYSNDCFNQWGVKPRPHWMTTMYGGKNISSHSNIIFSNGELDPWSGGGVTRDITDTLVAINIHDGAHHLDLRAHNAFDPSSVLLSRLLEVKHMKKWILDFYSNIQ

[2] = target: T1, Lysosomal Pro-X carboxypeptidase; experiment: Inhibition of mouse recombinant PrCP assessed as angiotensin 3 cleavage after 8 mins by LC/MS analysis
[3] = Drug uptake in CF-1 mouse brain at 1 mg/kg, iv measured after 4 hrs post dosing; assay type: ADME, organism-based; design: dose 1 mg/kg, route intravenous; settings: read-out: Drug uptake
[4] = Plasma concentration in CF-1 mouse at 1 mg/kg, iv measured after 4 hrs post dosing; assay type: ADME, organism-based; design: dose 1 mg/kg, route intravenous
[5] = Ratio of drug uptake in brain to plasma of CF-1 mouse at 1 mg/kg, iv measured 4 hrs post-dosing; assay type: ADME, organism-based; design: dose 1 mg/kg, route intravenous; settings: read-out: BPR
[6] = target: T2, Lysosomal Pro-X carboxypeptidase (Homo sapiens) (UniProt P42785); experiment: Inhibition of human recombinant PrCP using Mca-Ala-Pro-Lys(Dnp)-OH as substrate at 5 uM after 30 mins by fluorescence analysis
T2 sequence (whole entry): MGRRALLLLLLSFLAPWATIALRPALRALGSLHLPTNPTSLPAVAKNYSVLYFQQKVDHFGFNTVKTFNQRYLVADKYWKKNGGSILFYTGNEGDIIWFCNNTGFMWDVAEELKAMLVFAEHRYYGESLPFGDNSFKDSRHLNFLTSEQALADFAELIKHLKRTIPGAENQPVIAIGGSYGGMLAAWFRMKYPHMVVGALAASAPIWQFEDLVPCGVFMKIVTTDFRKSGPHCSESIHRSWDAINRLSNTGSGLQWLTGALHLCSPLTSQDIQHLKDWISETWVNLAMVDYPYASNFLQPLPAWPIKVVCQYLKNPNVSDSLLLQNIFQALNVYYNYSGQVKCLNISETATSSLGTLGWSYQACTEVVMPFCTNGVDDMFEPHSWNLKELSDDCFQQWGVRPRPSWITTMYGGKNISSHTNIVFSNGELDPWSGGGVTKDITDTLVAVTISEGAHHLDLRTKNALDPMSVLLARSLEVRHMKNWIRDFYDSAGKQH

[7] = target: T3, Lysosomal Pro-X carboxypeptidase (Homo sapiens, UniProt P42785); experiment: Inhibition of human recombinant PrCP using Mca-Ala-Pro-Lys(Dnp)-OH as substrate after 30 mins by fluorescence analysis
T3 sequence (P42785 whole entry): T2 sequence (whole entry)

SMILES: C[C@@H](c1ccc(Cl)cc1)N(C)c1cc(N2CCCC(C(C)(C)O)C2)ncn1 (stereo in doubt; 36a)
- IC50 [1]: 146 nM
- IC50 [2]: 2210 nM

SMILES: C[C@H](Nc1cc(N2CCCC(C(C)(C)O)C2)ncn1)c1ccc(Cl)cc1 (stereo not given in full)
- concentration at 4 h [3]: 400 nM
- concentration at 4 h [4]: 291 nM
- Kp at 4 h [5]: 1.4

SMILES: C[C@@H](c1ccc(-c2ccccc2)cc1)[C@H](NC(=O)C(C)(C)N)C(=O)N1CCC[C@H]1c1nc2cc(Cl)c(Cl)cc2[nH]1
- IC50 [2]: 25 nM

SMILES: FC(F)(F)c1ccccc1-c1ccnc(N2CCC[C@H]2c2nc3cc(Cl)c(Cl)cc3[nH]2)c1
- inhibition [6]: 46%

SMILES: Clc1cc2nc([C@@H]3CCCN3c3cc(N4CCC(c5ccccn5)C4)ncn3)[nH]c2cc1Cl (mixture of isomers)
- IC50 [2]: > 20000 nM

SMILES: Clc1cc2nc([C@@H]3CCCN3c3cc(N4CCCC(N5CCc6c(cccc6-c6cccnc6)C5)C4)ncn3)[nH]c2cc1Cl (stereo in doubt; 28a)
- IC50 [1]: 10 nM
- IC50 [2]: 345 nM
- concentration at 4 h [3]: 108 nM
- concentration at 4 h [4]: 367 nM
- Kp at 4 h [5]: 0.29

SMILES: COc1ccc(C2CN(c3cc(N4CCC[C@H]4c4nc5cc(Cl)c(Cl)cc5[nH]4)ncn3)CCO2)cc1 (stereo not given in full)
- IC50 [1]: 46 nM
- IC50 [2]: 9000 nM

SMILES: Clc1cc2nc([C@@H]3CCCN3c3cc(N4CCC(Cn5cccn5)CC4)ncn3)[nH]c2cc1Cl
- IC50 [1]: 206 nM
- IC50 [2]: > 20000 nM

SMILES: Clc1cc2nc([C@@H]3CCCN3c3cc(NCC4CCCCC4)ncn3)[nH]c2cc1Cl
- IC50 [7]: > 10000 nM

SMILES: Clc1cc2nc([C@@H]3CCCN3c3cc(N4CCO[C@H](c5ccccc5)C4)ncn3)[nH]c2cc1Cl
- IC50 [2]: > 20000 nM

SMILES: Clc1cc2nc([C@@H]3CCCN3c3cc(N4CCO[C@@H](c5ccccc5)C4)ncn3)[nH]c2cc1Cl
- IC50 [2]: > 20000 nM
- concentration at 4 h [3]: 242 nM
- concentration at 4 h [4]: 304 nM
- Kp at 4 h [5]: 0.79

SMILES: Clc1cc2nc([C@@H]3CCCN3c3cc(N4CCN(Cc5ccccc5)CC4)ncn3)[nH]c2cc1Cl
- IC50 [1]: 413 nM
- IC50 [2]: > 20000 nM

SMILES: C[C@H](Nc1cc(N[C@H]2CC[C@H](NS(C)(=O)=O)CC2)ncn1)c1ccc(Cl)cc1
- IC50 [1]: 105 nM

SMILES: C[C@H](Nc1cc(N[C@H]2CC[C@H](c3ccccc3)CC2)ncn1)c1ccc(Cl)cc1
- IC50 [1]: 75 nM

SMILES: COC(=O)N[C@H]1CC[C@H](Nc2cc(N[C@@H](C)c3ccc(Cl)cc3)ncn2)CC1
- IC50 [1]: 26 nM
- IC50 [2]: 159 nM

SMILES: CC(C)(O)C1CCCN(c2cc(N3CCC[C@H]3c3nc4cc(Cl)c(Cl)cc4[nH]3)ncn2)C1 (mixture of isomers)
- IC50 [2]: > 20000 nM

SMILES: OC1(c2ccccc2)CCN(c2cc(N3CCC[C@H]3c3nc4cc(Cl)c(Cl)cc4[nH]3)ncn2)C1 (mixture of isomers)
- IC50 [2]: > 20000 nM

SMILES: C[C@@H](c1ccc(Cl)cc1)N(C)c1cc(N2CCCC(C(C)(C)O)C2)ncn1 (mixture of isomers)
- IC50 [1]: 797 nM
- IC50 [2]: 5000 nM

SMILES: Clc1cc2nc([C@@H]3CCCN3c3cc(N4CCCC(N5CCc6c(cccc6-c6cccnc6)C5)C4)ncn3)[nH]c2cc1Cl (stereo in doubt; 28b)
- IC50 [1]: 18 nM
- IC50 [2]: 355 nM
